Experimental data published in PubChem BioAssay (NCI).
Where “and” joins values, the source holds several entries; their conditions need not be identical. Equal values may be shown once.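 Results reflect a 48-hour exposure of cells in 96-well plates to compound at five concentrations. The concentration for 50% growth inhibition is given as GI50. TGI marks complete inhibition of growth.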

What was measured:
Test in all cases: NCI tumour cell line growth inhibition, 48 h
ACHN renal = tested on: ACHN renal
MDA-MB-231 breast = tested on: MDA-MB-231 breast
COLO 205 colon = tested on: COLO 205 colon
SF-268 CNS = tested on: SF-268 CNS
TK-10 renal = tested on: TK-10 renal
RPMI-8226 leukemia = tested on: RPMI-8226 leukemia
HCC-2998 colon = tested on: HCC-2998 colon
NCI-H23 lung = tested on: NCI-H23 lung
U251 CNS = tested on: U251 CNS
UO-31 renal = tested on: UO-31 renal

Structure (SMILES) | TGI (ACHN renal) | TGI (MDA-MB-231 breast) | TGI (COLO 205 colon) | TGI (SF-268 CNS) | TGI (TK-10 renal) | TGI (RPMI-8226 leukemia) | TGI (HCC-2998 colon) | TGI (NCI-H23 lung) | TGI (U251 CNS) | TGI (UO-31 renal) | GI50 (ACHN renal) | GI50 (MDA-MB-231 breast) | GI50 (COLO 205 colon) | GI50 (SF-268 CNS) | GI50 (TK-10 renal) | GI50 (RPMI-8226 leukemia) | GI50 (HCC-2998 colon) | GI50 (NCI-H23 lung) | GI50 (U251 CNS) | GI50 (UO-31 renal)
COc1cc2c(cc1OC)C(SC)C(=O)N(Cc1cccc(OC)c1OC)CC2 (stereo not given) | > 81.6 µM | > 100 µM | 16.9 µM | > 100 µM | > 100 µM | 47.5 µM | 29.1 µM | 18.2 µM | > 69.3 µM | 70 µM |  |  |  |  |  |  |  |  |  | 
Nc1ccn([C@@H]2S[C@H](CO)[C@@H](O)[C@@H]2F)c(=O)n1 |  | > 100 µM | > 100 µM | > 100 µM | > 100 µM | > 100 µM | > 100 µM | > 49 µM | > 100 µM |  | 0.0271 µM | > 100 µM | 0.407 µM | 0.26 µM | > 100 µM | 2.65 µM | 3.03 µM | 0.0586 µM | 0.367 µM | 0.0356 µM
CCc1ccc(C2=NN(c3ccc(S(C)(=O)=O)cc3)C(=O)CC2)cc1 | > 100 µM | > 60.2 µM | 7.75 µM | > 100 µM | > 100 µM | > 57.6 µM | 33.4 µM | > 24.3 µM | > 100 µM | > 100 µM | 8.48 µM | 3.32 µM | 1.05 µM | 3.11 µM | 8.31 µM | 3.97 µM | 3.96 µM | 1.85 µM | 1.83 µM | 4.89 µM
COc1ccc(C(=O)/C=C/c2ccc(OCc3ccccc3)c(OC)c2)cc1OC | > 100 µM | > 100 µM | 22.6 µM | > 100 µM | 43.8 µM | 7.16 µM | 28 µM | 66.7 µM | > 100 µM | > 100 µM | 4.31 µM | 3.7 µM | 3.53 µM | 3.83 µM | 4.32 µM | 1.88 µM | 3.22 µM | 4.18 µM | 3.51 µM | 4.16 µM
O=C(CN(/C=C/C(=O)C(F)(F)F)c1ccccc1)c1ccc(F)cc1 | 69.4 µM | 42.1 µM | 58.3 µM | 64.5 µM | > 100 µM | 54 µM | 41.6 µM | > 100 µM | 69.8 µM | > 100 µM | 22.3 µM | 17.7 µM | 25 µM | 23.1 µM | 33 µM | 19.3 µM | 17.8 µM | 29.5 µM | 22.9 µM | 33.8 µM
Cn1c(CC(O)c2nc3ccccc3n2C)nc2ccccc21 (stereo not given) | > 33.9 µM | > 53.7 µM | > 35.8 µM | > 28.9 µM | > 36.4 µM | > 19.1 µM | > 100 µM | > 48.6 µM | > 48.8 µM | > 9.39 µM |  |  |  |  |  |  |  |  |  | 
CN(c1ccc(NC(=O)NCCN2CCOCC2)cc1)c1ccnc(Nc2ccc(CS(C)(=O)=O)cc2)n1 | > 25 µM | > 25 µM | > 25 µM | > 25 µM | > 25 µM | > 25 µM | > 25 µM | > 25 µM | > 25 µM | > 25 µM | > 25 µM | > 25 µM | > 16.8 µM | > 25 µM | > 25 µM | > 25 µM | > 25 µM | > 25 µM | > 25 µM | > 25 µM
N=C(N)c1ccc(OCCCCCOc2ccc(C(=N)N)cc2)cc1 | > 50 µM and 79.2 µM and > 100 µM | > 50 µM and 44.4 µM | 8.57 µM and 18.4 µM and 29.1 µM | 13.6 µM and 34.2 µM and 37.7 µM | 18.9 µM and 27.6 µM and 48.3 µM | > 100 µM | 40.4 µM and 28.3 µM | > 50 µM and 25.4 µM and 29 µM | 13.2 µM and 22.5 µM and 34.5 µM | > 100 µM | 18.5 µM | 8.69 µM | 2.18 µM and 5.19 µM and 11.9 µM | 4.48 µM | 8.49 µM | 3.81 µM and 22.6 µM and 6.87 µM | 7.15 µM | 3.34 µM | 2.79 µM | 
Oc1c(I)cc(Cl)c2cccnc12 | 21.7 µM and 23.7 µM | 35.2 µM and 12.8 µM | 21.8 µM and 75.4 µM | > 100 µM | > 100 µM and 73.8 µM | 27.2 µM and 10.8 µM | 36 µM and 59.4 µM | 31.4 µM and > 100 µM | > 100 µM and 32.8 µM | 11.5 µM and 52.9 µM | 3.52 µM and 3.5 µM | 3.54 µM and 2.7 µM | 5.21 µM and 5.72 µM | 3.86 µM and 6.22 µM | 31.3 µM and 24 µM | 3.43 µM and 2.86 µM | 5.55 µM and 12.7 µM | 3.74 µM and 8.04 µM | 3.9 µM and 3.65 µM | 2.35 µM and 22.1 µM
OC1CSCCSCCCSCCSC1 | > 100 µM | > 100 µM | > 100 µM | > 100 µM | > 100 µM | > 100 µM | > 100 µM | > 100 µM | > 100 µM | > 100 µM |  |  |  |  |  |  |  |  |  | 
O=S(=O)(NCCCNc1nccc(-c2c(-c3cccc(F)c3)nc3occn23)n1)c1cccc2ccccc12 | > 100 µM | > 100 µM | > 100 µM | > 100 µM | > 100 µM | > 100 µM | 5.74 µM | > 100 µM | > 100 µM | > 100 µM | 3.64 µM | 3.13 µM | 4.64 µM | 7.39 µM | 11 µM | 4.86 µM | 2.52 µM | 14.8 µM | 8.89 µM | 3.25 µM
COC(=O)c1ccc2c(c1)C(=O)c1c-2n(CCCCl)c(=O)c2cc(OC)c(OC)cc12 | > 100 µM | > 100 µM | > 100 µM | > 100 µM | > 100 µM | > 100 µM | > 100 µM | > 100 µM | > 100 µM | > 100 µM | > 100 µM | > 100 µM | > 100 µM | > 100 µM | > 100 µM | 75.2 µM | > 100 µM | > 100 µM | > 100 µM | > 100 µM
Cc1cc2c(cc1C)[n+](=O)c(C(=O)/C=C/c1ccccc1[N+](=O)[O-])c(C)n2[O-] | 66.9 µM | > 100 µM | > 100 µM | 74.9 µM | 69.7 µM | > 100 µM | > 100 µM | 63 µM | 64.8 µM | > 100 µM |  |  |  |  |  |  |  |  |  | 
N#Cc1cccc(C2C3=C(COC3=O)N(CCO)c3cc4c(cc32)CCC4)c1 (stereo not given) | > 50 µM |  | 1.28 µM | > 50 µM | > 50 µM | > 28.1 µM | > 30.4 µM | > 50 µM | > 50 µM | > 31.7 µM | 0.277 µM | 0.22 µM | 0.146 µM | 0.368 µM | 0.436 µM | 0.212 µM | 0.186 µM | 0.302 µM | 0.196 µM | 0.165 µM
Cc1n(Cc2ccc3ccccc3n2)cc[n+]1Cc1ccc2ccccc2c1 | 46.4 µM | 4.08 µM | 1.1 µM | 14 µM | 7.96 µM | 6.63 µM | 7.24 µM | 9.81 µM | 12.2 µM | 36.1 µM | 9.46 µM | 0.665 µM | 0.302 µM | 0.784 µM | 1.94 µM | 0.376 µM | 0.819 µM | 0.935 µM | 0.384 µM | 13.6 µM
CN1CC[C@]23c4c5ccc(O)c4OC2c2[nH]ncc2C[C@H]3[C@H]1C5 (stereo not given in full) | > 100 µM | > 100 µM | > 100 µM | > 100 µM | > 100 µM | > 100 µM | > 100 µM | > 100 µM | > 100 µM | > 100 µM |  |  |  |  |  |  |  |  |  | 
C=CC(C)(O)CCC1C(=C)C(O)CC2C(C)(C)CCCC12C (stereo not given) | 70.4 µM | 31.8 µM | 29.4 µM | 38 µM | 47.5 µM | 58.2 µM | 33.2 µM | 38.3 µM | 28.8 µM | 28.5 µM |  |  |  |  |  |  |  |  |  | 
Cc1ccc(NC(=O)c2ccc(NC3=C(Cl)C(=O)N(Cc4ccccc4)C3=O)cc2)cc1Cl | 25.1 µM | 11.9 µM | > 100 µM | 33.7 µM | 40.5 µM | 16.5 µM | 14.2 µM | 29.8 µM | 17.8 µM | 2.71 µM | 12.6 µM | 1.35 µM | 13.5 µM | 12.4 µM | 17.4 µM | 3.58 µM | 2.36 µM | 11.3 µM | 3.97 µM | 1.41 µM
Cc1ccc(NC2=CC(=O)C(=O)c3ccccc32)c(C)c1 | 13.9 µM | 19.4 µM | 11.6 µM | 16.2 µM | 12.2 µM | 53.7 µM | 7.91 µM | 4.51 µM | 11.9 µM | 14.5 µM | 3.71 µM | 3.03 µM | 3.06 µM | 3.75 µM | 0.596 µM | 4.84 µM | 2.54 µM | 1.78 µM | 3.07 µM | 2.19 µM
CC(C)C/C(=N\NC(=O)c1ccncc1)c1cc(Cl)ccc1O | > 41.1 µM | > 46 µM | 14.4 µM | > 76.6 µM | > 100 µM | > 50.7 µM |  | 33.5 µM | > 72.1 µM | 18.6 µM | 0.157 µM | 0.622 µM | 0.354 µM | 0.399 µM | 0.348 µM | 0.461 µM | 0.27 µM | 0.449 µM | 0.303 µM | 0.211 µM
O=C(/C=C/c1cccc(Oc2ccc(Cl)cc2)c1)c1ccccc1 | 31.7 µM | 89 µM | 283 µM | 209 µM | 342 µM | 61 µM | 255 µM | 266 µM | 42 µM | 34.1 µM | 16.9 µM | 29.1 µM | 63.4 µM | 75.5 µM | 192 µM | 25.3 µM | 117 µM | 80.7 µM | 21.1 µM | 17.3 µM
C=CC[PH+](c1ccccc1)c1ccccc1.C=CC[PH+](c1ccccc1)c1ccccc1.[Pt+2].[S-]c1ncccn1.[S-]c1ncccn1 | 5.31 µM | 52.8 µM | 26.9 µM | > 100 µM | 46.2 µM | 17.4 µM | 41.5 µM | 59 µM | > 100 µM | 18 µM | 2.14 µM | 5.68 µM | 5.24 µM | 25.9 µM | 5.8 µM | 3.16 µM | 19.1 µM | 17.9 µM | 23.4 µM | 3.75 µM
